Assay results taken from US7763578B2, “Preparation of polymeric foams using hydrofluoroether nucleating agents” (3M Innovative Properties Company, priority 2004, dated 2010).

Assay: Acute toxicity (acute lethal concentration in air)
Type: in vivo
Details: 10,000 ppm is its saturated concentration in air at room temperature
From the text: In addition to providing useful performance as nucleating agents, the segregated ethers useful herein can offer additional important benefits in safety of use and in environmental compatibility (e.g., zero ozone depletion potential and low atmospheric lifetime). For example, 3M NOVEC Brand HFE-7500 has low acute toxicity (its acute lethal concentration is greater than 10,000 ppm which is its saturated concentration in air at room temperature). […] Further, polymeric foams produced in accordance with the invention have excellent thermal insulation properties.

## CCOC(F)(C(F)(F)C(F)(F)C(F)(F)F)C(F)(C(F)(F)F)C(F)(F)F (stereo not shown) [3M NOVEC Brand HFE-7500, C3F7CF(OC2H5)CF(CF3)2]
  acute lethal concentration: greater than 10,000 ppm
